US5420289A, “Substituted indole-, indene-, pyranoindole- and tetrahydrocarbazole-alkanoic acid derivatives as inhibitors of PLA2 and lipoxygenase” (American Home Products Corporation, priority 1993, dated 1995)

Key:
[1] = molecular target: T1, human synovial fluid PLA2 (Homo sapiens, UniProt P14555); assay: in vitro isolated phospholipase A2 assay, human synovial fluid PLA2 (Example 74); format: biochemical; parameters: inhibition / % Inhibition, HSF (human synovial fluid): dose or concentration left out as unconfirmed; conditions: read-out: % Inhibition, HSF (human synovial fluid)
T1 sequence (P14555 21-144): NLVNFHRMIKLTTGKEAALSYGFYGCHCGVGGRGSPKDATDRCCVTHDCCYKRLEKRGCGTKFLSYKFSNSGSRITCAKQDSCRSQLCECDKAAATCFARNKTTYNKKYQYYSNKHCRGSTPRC
Protocol: (§1) The compounds of the invention are tested in an in vitro isolated phospholipase A2 assay to determine the ability of the test compounds to inhibit the release of arachidonic acid from an arachidonic acid-containing substrate by the action of phospholipase A2 enzyme from human and non-human sources.
(§2) This assay is carried out as follows:
(§3) Into a 15 mL polypropylene tube are added the following:
(§4) ^6 Two human PLA2 enzymes are used:
b) Purified human synovial fluid.
(§5) Incubate the 100mL reaction mixture for 10 minutes at 37° C. in a shaking water bath. The reaction is terminated by the addition of 2 mL tetrahydrofuran, followed by vortexlag. NH2 columns (100 mg/mL--Analytichem International) are conditioned with 0.5 mL tetrahydrofuran followed by 0.5 mL tetrahydrofuran/water (2 mL:0.1 mL, v/v).
(§6) The sample is loaded onto the columns and slowly drawn through them. The hydrolyzed arachidonic acid retained in the columns is eluted therefrom with 1 mL tetrahydrofuran/glacial acetic acid (2%). The arachidonic acid is transferred to scintillation vials and quantitated by b-counting analysis. A "total counts" sample is prepared by pipetting […] ^3 H-arachidonate E. coli directly into a scintillation vial to which is added 1 mL tetrahydrofuran. 10 mL aquasol (scintillation cocktail) is added to all samples. [formula]

human platelet PLA2 = molecular target: T2, human platelet PLA2 (Homo sapiens, UniProt P14555); assay: in vitro isolated phospholipase A2 assay, human platelet PLA2 (Example 74); format: biochemical; parameters: dose or concentration left out as unconfirmed; conditions: read-out: % Inhibition, HP (human platelet)
T2 construct: Semi-purified human platelet acid extract PLA2; from tissue; host or cells: human platelets (semi-purified acid extract)
T2 sequence (P14555 21-144): T1 sequence (P14555 21-144)
Protocol: as §1, §2, §3, §4
a) Semi-purified human platelet acid extract PLA2 (in 10 mM
sodium acetate buffer, pH 4.5). Remove protein precipitate by
centrifugation at about 2200 rpm for 10 minutes.
as §5, §6

[2] = test system: 5-lipoxygenase in human whole blood; assay: inhibition of 5-lipoxygenase in human whole blood (Example 79); format: cell-based; conditions: for % Inhibition of LTB4: 25 μM; for IC50: human whole blood, read-out: IC50 (inhibition of LTB4)
Protocol: The assay of this Example measures the ability of the compounds tested to inhibit 5-lipoxygenase in human whole blood.
as §2
Blood is obtained in 50-100 ml quantities from male donors. White blood cell counts and differentials are made. Two ml of blood are placed in a 15 ml polypropylene test tube. Compounds are solubilized in dimethylsulfoxide and diluted 1:10 in 10% bovine serum albumin in phosphate buffered saline, pH 7.4 resulting in a final dimethylsulfoxide concentration of 0.1% in the blood. Then, compounds are added to the blood in a shaking water bath at 37° C. for 10 minutes prior to the addition of […] calcium ionophore (A23187; Sigma). After ionophore administration, whole blood samples are mixed and incubated for 20 minutes at 37° C. in a shaking water bath. Incubation is terminated by placing samples in an ice bath and immediately adding ethylene glycol-bis-(b-aminoethyl ether)-N,N,N',N'-tetraacetic acid (10 mM). Samples are mixed and centrifuged at 1200 × g for 15 minutes at 4° C. Preparation of samples for evaluation by RIA or ELISA is carried out by the following protocol. Plasma is removed from sample tubes, placed in 15 ml polypropylene test tubes containing 8 ml methanol, and then vortexed to precipitate protein. Samples are stored at -70° C. overnight. The next day, samples are centrifuged at 200 × g for 15 minutes at 4° C. to pellet the precipitate. Samples are dried in a Savant speed vac concentrator, reconstituted to original volume with ice cold RIA or ELISA buffer, and stored at -70° C. until assayed. The assay for eicosanoids (LTB4, T×B2, and PGE2) is performed as described by the manufacturer of the [^3 H]-RIA kit or ELISA kit (LTB4 -Amersham, TxB2 and PGE2 - Caymen Chemical).
The total eicosanoid level in 2 ml of blood is calculated and reported as ng/10^6 neutrophils. […] Drug effects are expressed as percent change from control values.
Compounds tested in vitro are solubilized in dimethylsulfoxide and diluted 1:10 in 10% bovine serum albumin in phosphate buffer saline resulting in a final dimethylsulfoxide concentration of 0.1% i n the blood.

inhibition [1] [%] | inhibition (human platelet PLA2) [%] | IC50 [2] [µM] | SMILES | % Inhibition of LTB4 [2] [%]
54 | 8 | – | Cc1c(CC(=O)O)c2cc(OCc3csc(-c4ccc(Cl)cc4)n3)ccc2n1Cc1ccc(Cl)cc1 [Example 69, 5-[[2-(4-Chlorophenyl)-4-thiazolyl]methoxy]-1-[(4chlorophenyl)methyl]-2-methyl-1H-indole-3-acetic acid] | –
6 | 1 | – | CCOC(=O)Cc1c(C)n(Cc2ccc3ccccc3c2)c2ccc(OCc3csc(-c4ccccc4)n3)cc12 [Example 66, 5-[(2-Phenyl-4-thiazolyl)methoxy]-1-(2-naphthalenylmethyl)-2-methyl-1H-indole-3acetic acid ethyl ester] | –
89 | 85 | – | Cc1c(CC(=O)O)c2cc(OCc3csc(-c4ccccc4)n3)ccc2n1Cc1csc(-c2ccc(Cl)cc2)n1 [Example 65, 5-[(2-Phenyl-4-thiazolyl)methoxy]-1-[[2-(4-chlorophenyl)-4-thiazolyl]methyl]-2-methyl-1H-indole-3-acetic acid] | 22
– | 2 | – | CC(=O)OCCc1c(C)n(Cc2ccccc2)c2ccc(OCc3csc(-c4ccccc4)n3)cc12 [Example 56, 5-[(2-Phenyl-4-thiazolyl)methoxy]-1-(phenylmethyl)-2-methyl-1H-indole-3-ethanol acetate ester] | 2
91 | 44 | – | Cc1c(CC(=O)O)c2cc(OCc3coc(-c4ccccc4)n3)ccc2n1Cc1ccccc1 [Example 71, 5-[(2-Phenyl-4-oxazolyl)methoxy]-1-(phenylmethyl)-2-methyl-1H-indole-3-acetic acid hemihydrate.] | –
0 | 2 | – | CCOC(=O)Cc1c(C)n(Cc2ccc(Cl)cc2)c2ccc(OCc3csc(-c4ccc(Cl)cc4)n3)cc12 [Example 68, 5-[[2-(4-Chlorophenyl)-4-thiazolyl]methoxy]-1-[(4-chlorophenyl)methyl]-2-methyl-1H-indole-3-acetic acid ethyl ester] | –
84 | 3 | – | COc1cccc(Cn2c(C)c(CC(=O)O)c3cc(OCc4csc(-c5ccccc5)n4)ccc32)c1 [Example 60, 5-[(2-Phenyl-4-thiazolyl)methoxy)-1-[[(3-methoxy)phenyl]methyl]-2-methyl-1H-indole-3-acetic acid] | 35
34 | 2 | – | Cc1c(CC(=O)O)c2cc(OCc3csc(-c4ccccc4)n3)ccc2n1CCCc1ccccc1 [Example 63, 5-[(2-Phenyl-4-thiazolyl)methoxy]-1-(3-phenylpropyl)-2methyl-1H-indole-3-acetic acid] | –

Further lines, the compound ahead of its results:

SMILES | inhibition [1] [%] | inhibition (human platelet PLA2) [%] | IC50 [2] [µM] | % Inhibition of LTB4 [2] [%]
Cc1c(CC(=O)NO)c2cc(OCc3nc4ccccc4s3)ccc2n1Cc1ccc(Cl)cc1 [Example 46, 5-(2-Benzothiazolylmethoxy)-1-[(4-chlorophenyl)methyl]-N-hydroxyl-2-methyl-1H-indole-3-acetamide] | 48 | 13 | 14.9 | 30
Cc1c(CC(=O)O)c2cc(OCc3nc4ccccc4s3)ccc2n1Cc1ccccc1 [Example 51, 5-(2-Benzothiazolylmethoxy)-1-(phenylmethyl)-2-methyl-1H-indole-3-acetic acid] | 88 | 41 | – | 5
Cc1c(CC(=O)NOCc2ccccc2)c2cc(OCc3nc4ccccc4s3)ccc2n1Cc1ccc(Cl)cc1 [Example 48, 5-(2-Benzothiazolylmethoxy)-1-[(4-chlorophenyl)methyl]-N-(phenylmethoxy)-2-methyl-1H-indole-3-acetamide] | 54 | 4 | – | –
CSc1ccc(Cn2c(C)c(CC(=O)O)c3cc(OCc4nc5ccccc5s4)ccc32)cc1 [Example 54, 5-(2-Benzothiazolylmethoxy)-1-[[4-(methylthio)phenyl]methyl]-2-methyl-1H-indole-3-acetic acid] | 44 | 2 | – | 11
Cc1c(CC(=O)N(C)O)c2cc(OCc3nc4ccccc4s3)ccc2n1Cc1ccc(Cl)cc1 [Example 49, 5-(2-Benzothiazolylmethoxy)-1-[(4-chlorophenyl)methyl]N-hydroxyl-N,2-dimethyl-1H -indole-3-acetamide] | 4 | 6 | 12.3 | 61
CONC(=O)Cc1c(C)n(Cc2ccc(Cl)cc2)c2ccc(OCc3nc4ccccc4s3)cc12 [Example 47, 5-(2-Benzothiazolylmethoxy)-1-[(4-chlorophenyl)methyl]-N-methoxy-2-methyl-1H-indole-3-acetamide hemihydrate.] | 2 | 5 | – | 31
Cc1c(CCO)c2cc(OCc3csc(-c4ccccc4)n3)ccc2n1Cc1ccccc1 [Example 55, 5-[(2-Phenyl-4-thiazolyl)methoxy]-1-(phenylmethyl)-2-methyl-1H-indole-3-ethanol] | 4 | 13 | – | 19
